# Measurements reported in article PMC3599540, “4-Aryl-4H-naphthopyrans derivatives: one-pot synthesis, evaluation of Src kinase inhibitory and anti-proliferative activities” (DARU Journal of Pharmaceutical Sciences, 2012).
# Legend:
# [1] = molecular target: T1, c-Src kinase (Homo sapiens, UniProt P12931); assay: c-Src kinase activity assay (HTScan Src Kinase Assay Kit); format: biochemical; settings: concentration that inhibited enzyme activity by 50%; triplicate; read-out: IC50 (inhibition of Src kinase activity)
# T1 construct: purchased Cell Signaling Technology (Danvers, MA, USA) 7776
# T1 sequence (P12931 whole entry): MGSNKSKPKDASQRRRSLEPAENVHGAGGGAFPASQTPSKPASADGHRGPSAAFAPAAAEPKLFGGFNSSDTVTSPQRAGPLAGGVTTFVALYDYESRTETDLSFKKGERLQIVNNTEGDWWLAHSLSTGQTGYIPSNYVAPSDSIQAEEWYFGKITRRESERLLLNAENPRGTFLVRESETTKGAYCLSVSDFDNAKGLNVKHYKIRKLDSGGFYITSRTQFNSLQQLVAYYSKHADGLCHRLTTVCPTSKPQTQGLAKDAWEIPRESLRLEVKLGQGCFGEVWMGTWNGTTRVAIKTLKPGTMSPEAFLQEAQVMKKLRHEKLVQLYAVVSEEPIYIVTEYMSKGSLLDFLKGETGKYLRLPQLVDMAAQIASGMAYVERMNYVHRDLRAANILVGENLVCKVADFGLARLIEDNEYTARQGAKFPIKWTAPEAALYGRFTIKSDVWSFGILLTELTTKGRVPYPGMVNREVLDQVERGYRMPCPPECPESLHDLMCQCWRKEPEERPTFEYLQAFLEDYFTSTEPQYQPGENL
# Procedure: Streptavidin-coated plates were purchased from Pierce (Rockford, IL, USA). […] The reaction mixture was incubated for 30 min at room temperature. The kinase reaction was stopped with the addition of 50 μL of 50 mM EDTA (pH 8.0). […] At the end of the incubation, the wells were washed three times with 200 μL of 0.05% Tween-20 in PBS buffer (PBS/T). After that to each well was added 100 μL of phosphotyrosine antibody (P-Tyr-100) (1:1000 dilution in PBS/T with 1% BSA) and the wells were incubated for another 60 min. After washing three times with 0.05% Tween-20 in PBS/T, the wells were incubated with 100 μL secondary anti-mouse IgG antibody, which was HRP-conjugated (1:500 dilution in PBS/T with 1% BSA) for next 30 min at room temperature. The wells were washed five times with 0.05% Tween-20 in PBS and then were incubated with 100 μL of 3,3',5,5'-tetramethylbenzidine dihydrochloride (TMB) substrate for 5 min. The reaction was stopped by adding 100 μL/well of stop solution to each well and mixed well and read the absorbance at 450 nm using a microplate reader (Molecular devices, spectra Max M2). IC50 values of the compounds were calculated using ORIGIN 6.0 (origin lab) software. […] All the experiments were carried out in triplicate.
# [2] = system: mesenchymal stem cell proliferation; set-up: method as in PMID 9562601; settings: cited from earlier work
# [3] = system: breast carcinoma (BT-20) cell line; assay: Cell proliferation assay (CellTiter 96) in BT-20 cells; format: cell-based; settings: DOX 10 μM, 72 h incubation, relative to DMSO control
# Procedure: Breast carcinoma BT-20 (ATCC no. HTB-19) cell lines were obtained from American Type Culture Collection. Cells were grown on 75 cm^2 cell culture with EMEM medium for breast carcinoma and supplemented with 10% fetal bovine serum (FBS), and 1% penicillin-streptomycin solution (10,000 units of penicillin and 10 mg of streptomycin in 0.9% NaCl) in a humidified atmosphere of 5% CO2, 95% air at 37°C.
# Cell proliferation assay of compounds was evaluated in BT-20 cells, and was compared with that of doxorubicin (DOX)[38]. Cell proliferation assay was carried out using CellTiter 96 aqueous one solution cell proliferation assay kit (Promega, USA). Briefly, upon reaching about 75-80% confluence, 5000 cells/well were plated in 96-well microplate in 100 μL media. After seeding for 72 h, the cells were treated with 50 μM compound in triplicate. […] The absorbance of the formazan product was measured at 490 nm using microplate reader. The blank control was recorded by measuring the absorbance at 490 nm with wells containing medium mixed with CellTiter 96 aqueous solution but no cells. Results were expressed as the percentage of the control (DMSO without compound set at 100%). The percentage of cell survival was calculated as (OD value of cells treated with test compound - OD value of culture medium) / (OD value of control cells – OD value of culture medium) × 100%. […]
SMILES,IC50 [1],also measured
"CSc1ccc(C2C(C#N)=C(N)OC3=C2CCc2ccccc23)cc1 (stereo not drawn) [compound B, 4-aryl-4H-5,6-dihydronaphtho[1,2-b]pyran]",,IC50 [2]: 13 µM
COc1cccc2c1C(=O)c1c(O)c3c(c(O)c1C2=O)C[C@@](O)(C(=O)CO)C[C@@H]3O[C@H]1C[C@H](N)[C@H](O)[C@H](C)O1 [doxorubicin],,Inhibition of BT-20 cell growth (positive control) [3]: 25%

# Continued, in another order:
IC50 [1],SMILES,also measured
34.7 µM,N#CC1=C(N)Oc2c(ccc3ccccc23)C1c1ccccc1Cl (stereo not drawn) [Compound 4d],
41.7 µM,N#CC1=C(N)Oc2ccc3ccccc3c2C1c1cccc(Cl)c1 (stereo not drawn) [Compound 4j],
33.8 µM,N#CC1=C(N)Oc2ccc3ccccc3c2C1c1cccc(O)c1 (stereo not drawn) [Compound 4m],
34.5 µM,COc1ccc(C2C(C#N)=C(N)Oc3ccc4ccccc4c32)cc1 (stereo not drawn) [Compound 4n],
